Experimental findings from ChEMBL document CHEMBL1158837, “Cyclohexadepsipeptides from the insect pathogenic fungus Hirsutella nivea BCC 2594” (J Nat Prod, 2005) are described below.

Structures are written as SMILES. ≈ marks a conversion by molar mass, not a printed value. Calls of active or inactive are those of the source. No cut-off for these calls is given here. Square brackets hold non-standard residues; d marks the D form. Peptide text beside a SMILES is read from it. Hica(2S) = CC(C)C[C@H](O)C(=O)O; NMeL = CN[C@@H](CC(C)C)C(=O)O; Hiv = CC(C)[C@H](O)C(=O)O

The test system of data set [1] is Plasmodium falciparum. Put plainly: Antimalarial activity against multidrug-resistant Plasmodium falciparum K1 at 20 ug/ml after 42 hrs as reduced [3H]hypoxanthine uptake. The data set is classed as functional, organism-based.
Data set [2] has as its system Mycobacterium tuberculosis. In words: Antitubercular activity against Mycobacterium tuberculosis H37Ra after 4 days by microplate alamar blue assay. The class given is functional. Particulars: 96 h. (Resazurin is reduced to fluorescent resorufin, in cell work by metabolically active cells.)
Data set [3] concerns Vero. Put plainly: Cytotoxicity against african green monkey Vero cells at 50 ug/ml by SRB assay. To be noted: chlorocebus sabaeus. The class given is cell-based. For orientation: Sulforhodamine B stains cellular protein and so reports cell mass.
The subject of data set [4] is Plasmodium falciparum. In words: Antimalarial activity against multidrug-resistant Plasmodium falciparum K1 after 42 hrs by [3H]hypoxanthine uptake. The class given is functional, organism-based.

One may read the MIC as the least concentration at which growth counts as inhibited. One may read the IC50 as the point on the concentration scale where inhibition reaches its midpoint.

With `CC(C)C[C@@H]1OC(=O)[C@H](C(C)C)OC(=O)[C@H](CO)NC(=O)[C@H]([C@@H](C)O)NC(=O)[C@H](CC(C)C)N(C)C(=O)[C@H](Cc2ccccc2)NC1=O` [HIRSUTATIN A] (HELM PEPTIDE1{F.[meL].T.S.[CC(C)[C@H](O[*:1])C(=O)[*:2]].[CC(C)C[C@H](O[*:1])C(=O)[*:2]]}$PEPTIDE1,PEPTIDE1,1:R1-6:R2$$$V2.0), in data set [1], the result was inactive. This compound also came in with an MIC in data set [2] of 50 µg/mL (≈ 73.9 µM). The Activity result in data set [3] is “Non-toxic”.
In data set [2], `COc1ccc(C[C@@H]2NC(=O)[C@H](CC(C)C)OC(=O)[C@H](C(C)C)OC(=O)[C@H](CO)NC(=O)[C@H]([C@@H](C)O)NC(=O)[C@H](CC(C)C)N(C)C2=O)cc1` [HIRSUTATIN B] (cyclo([Hica(2S)]Y(Me)[NMeL]TS[Hiv])) had an MIC of 50 µg/mL (≈ 70.7 µM). The same compound came in with an IC50 in data set [4] of 5.8 µg/mL (≈ 8.21 µM). Also, the Activity result in data set [3] is “Non-toxic”.
